Laboratory results reported in article doi:10.1101/2024.03.22.586364, “Development of quantitative high-throughput screening assays to identify, validate, and optimize small-molecule stabilizers of misfolded β-glucocerebrosidase with therapeutic potential for Gaucher disease and Parkinson’s disease” (bioRxiv, 2024).
Substitutions are numbered along the chain they refer to. Where a name gives a salt, the structure may show the parent alone.

Tests used:
[1] = system: integrated stress response (ISR); parameters: method as in PMID 23741617; conditions: read-out: IC50 (potency with which ISRIB modifies its target); cited from earlier work
HiBiT-GCase-WT = target: T1, HiBiT-GCase-WT (Homo sapiens, UniProt P04062); test: HiBiT-GCase-WT lytic luminescence assay, H4 reporter cells; format: cell-based; conditions: 24 h treatment, 1536-well format
T1 construct: expressed in transfected cells; host or cells: GBA1-KO H4 human neuroglioma cells; transgene stably integrated at the CLYBL safe-harbor locus by TALENs; CAG promoter
T1 sequence (P04062 40-536): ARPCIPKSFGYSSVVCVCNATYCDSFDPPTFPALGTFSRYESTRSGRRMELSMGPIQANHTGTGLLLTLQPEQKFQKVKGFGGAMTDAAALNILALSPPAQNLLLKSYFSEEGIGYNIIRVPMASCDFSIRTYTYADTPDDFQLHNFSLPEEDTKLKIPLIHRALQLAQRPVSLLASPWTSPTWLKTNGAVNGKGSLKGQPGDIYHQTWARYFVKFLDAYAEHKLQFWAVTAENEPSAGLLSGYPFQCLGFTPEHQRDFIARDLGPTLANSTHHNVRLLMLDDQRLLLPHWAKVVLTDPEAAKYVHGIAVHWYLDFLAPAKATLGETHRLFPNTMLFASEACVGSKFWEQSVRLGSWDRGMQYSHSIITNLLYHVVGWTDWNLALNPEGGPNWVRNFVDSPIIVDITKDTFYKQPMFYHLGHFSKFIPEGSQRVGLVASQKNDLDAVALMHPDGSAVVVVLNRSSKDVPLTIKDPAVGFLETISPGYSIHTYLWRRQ
Text: (§1) Figure 1. HiBiT-tagged GCase retains normal trafficking and function, enabling a high-throughput screening assay measuring cellular GCase levels. (A) GCase was labeled with a small (1.3 kDa), pro-luminescent, N-terminal HiBiT peptide tag immediately following the signal peptide (SP) sequence. (B) This HiBiT-GCase reporter (WT, N370S, or L444P) was engineered into a human Citrate Lyase Beta-Like (CLYBL) intragenic safe-harbor locus within a GBA1-KO H4 cell background using TALEN-enhanced integrative gene transfer. (C) Co-localization of GCase (green) with lysosomal marker LAMP1 (magenta) was determined by immunofluorescent staining. […] (G) GCase protein levels were quantitated by AlphaLISA (Amplified Luminescent Proximity Homogeneous Assay) utilizing a sandwich configuration of two monoclonal antibodies recognizing non-overlapping epitopes, hGCase-1/23 (which was biotinylated and associated with a streptavidin-coated donor bead) and hGCase-1/17 (which was directly conjugated to an acceptor bead). […] (H) GCase activity was measured in cell lysates using the fluorogenic substrate 4-methylumbelliferyl-β-D-glucopyranoside. Relative GCase activity was calculated by adjusting for protein concentration, correcting for GBA1-KO H4 cell background, and normalizing to GBA1-WT signal. […]

HiBiT-GCase-N370S = target: T2, HiBiT-GCase-N370S (Homo sapiens, UniProt P04062, N409S); test: HiBiT-GCase-N370S lytic luminescence assay, H4 reporter cells; format: cell-based; conditions: 24 h treatment, 1536-well format
T2 construct: expressed in transfected cells; host or cells: GBA1-KO H4 human neuroglioma cells; transgene stably integrated at the CLYBL safe-harbor locus by TALENs; CAG promoter
T2 sequence (P04062 40-536 N409S): T1 sequence (P04062 40-536) with N370S
Text: as §1

recombinant GCase-WT = target: T3, recombinant GCase-WT (Homo sapiens, UniProt P04062); test: Microscale thermophoresis (MST) target engagement; format: binding; conditions: 50 mM sodium citrate buffer (pH 5.5); n = 2; read-out: dissociation constant (Kd)
T3 construct: purchased Bio-Techne 7410-GHB-020
T3 sequence (P04062 40-536): T1 sequence (P04062 40-536)
Experimental: Microscale thermophoresis (MST) experiments were performed using the Monolith NT.Automated instrument (NanoTemper Technologies). […] The recombinant GCase was further diluted with assay buffer (50 mM sodium citrate, pH 5.5) to 0.160 mg/mL and incubated (RT) for 30 min with 50 nM RED-tris-NTA 2nd Generation dye from the Monolith His-Tag Labeling Kit (Cat.#MO-L018; NanoTemper Technologies). The labeling reaction mixture was centrifuged for 10 min at 4°C and 15,000 × g to remove protein aggregates, after which the supernatant was diluted 2.5x with assay buffer. For each compound measured, a 12-point, 2x titration series of compound in DMSO was prepared; 1 μL of compound in DMSO from each point in the titration series was combined with 9 μL of assay buffer and 10 μL of labeled GCase in a 384-well plate, which was left standing for 30 min (RT). The resultant final concentration of labeled GCase was ~570 nM (in 5% DMSO).

| Compound | IC50 [1] | effect on HiBiT-GCase-WT levels (in words) (HiBiT-GCase-WT) | effect on HiBiT-GCase-N370S levels (in words) (HiBiT-GCase-N370S) | Kd (recombinant GCase-WT) |
| --- | --- | --- | --- | --- |
| O=C(COc1ccc(Cl)cc1)N[C@H]1CC[C@H](NC(=O)COc2ccc(Cl)cc2)CC1 [NCGC00384174-12, trans-ISRIB] | 0.005 µM | – | – | – |
| Nc1c(Br)cc(Br)cc1CN[C@H]1CC[C@H](O)CC1 [NCGC00371077-02, Ambroxol HCl] | – | increased HiBiT-GCase levels in all three lines | increased HiBiT-GCase levels in all three lines | – |
| O=C(COc1ccccc1C(=O)Nc1ccc(I)cc1)Nc1ccc(I)cc1 [NCGC00241326-01, N-(4-iodophenyl)-2-(2-((4-iodophenyl)amino)-2-oxoethoxy)benzamide] | – | – | – | 3.75 µM |
| C#Cc1ccc(NC(=O)c2cnn3c(C)cc(C)nc23)cc1 [NCGC758] | – | inactive in all three lines | inactive in all three lines | – |
